# Like-named read-outs stand apart in the source and are kept apart here.
# How the values were obtained:
# Format in all cases: cell-based
# [1] = tested on: Bacillus subtilis (Bs); assay: Minimum inhibitory concentration (MIC) in nutrient agar, Bacillus subtilis
# Method: (§1) The antimicrobial activity of the compounds of the present invention is set forth as the minimum inhibitory concentration (MIC) for the active compounds and is determined for nine (9) bacteria, using nutrient agar, and seven (7) yeast and fungi, using malt yeast agar. This determination is conducted using a one percent solution of the test compound prepared in a mixture of acetone and water.
# (§2) Nutrient agar is prepared at pH 6.8, representing a neutral medium, and at pH 8.2, representing an alkaline medium. The nutrient agars are prepared by adding 23 g of nutrient agar to one-liter of deionized water. In addition, the alkaline medium is prepared by adjusting a 0.04M solution of N-[tris-(hydroxymethyl)methyl]glycine buffered deionized water with concentrated sodium hydroxide to a pH of 8.5.
# (§3) The test tubes containing the agar are cooled in a water bath until the temperature of the agar is 48° C. Then, an appropriate amount of the one percent solution of the test compound is added (except in the controls where no compound is added) to the respective test tubes so that the final concentrations are 500, […], 100, 50, 25, 10, 5, 2.5, 1.0 and zero parts per million of the test compound in the agar, thus having a known concentration of test compound dispersed therein. The contents of the test tubes are then transferred to respective petri plates. After drying for 24 hours, the petri plates containing nutrient agar are inoculated with bacteria and those containing malt yeast agar are inoculated with yeast and fungi.
# (§4) The inoculation with bacteria is accomplished by using the following procedure. Twenty-four hour-cultures of each of the bacteria are prepared by incubating the respective bacteria in tubes containing nutrient broth for 24 hours at 30° C. in a shaker. Dilutions of each of the 24 hour-cultures are made so that nine separate suspensions (one for each of the nine test bacteria) are made, each containing 10^8 colony forming units (CFU) per mL of suspension of a particular bacteria. Aliquots of 0.3 mL of each of the bacterial suspensions are used to fill the individual wells of Steer's Replicator. For each microbial suspension, 0.3 mL was used to fill three wells (i.e., three wells of 0.3 mL each) so that for the nine different bacteria, 27 wells are filled. The Steer's Replicator is then used to inoculate both the neutral and alkaline pH nutrient agar petri plates.
# (§5) The inoculated petri plates are incubated at 30° C. for 48 hours and then read to determine if the test compound which is incorporated into the agar prevented growth of the respective bacteria.
# [2] = tested on: Enterobacter aerogenes (Ea); assay: Minimum inhibitory concentration (MIC) in nutrient agar, Enterobacter aerogenes; conditions: Klebsiella aerogenes, 48 h
# Method: as §1, §2, §3, §4, §5
# [3] = tested on: Escherichia coli (Ec); assay: Minimum inhibitory concentration (MIC) in nutrient agar, Escherichia coli
# Method: as §1, §2, §3, §4, §5
# [4] = tested on: Klebsiella pneumoniae (Kp); assay: Minimum inhibitory concentration (MIC) in nutrient agar, Klebsiella pneumoniae
# Method: as §1, §2, §3, §4, §5
# [5] = tested on: Proteus vulgaris (Pv); assay: Minimum inhibitory concentration (MIC) in nutrient agar, Proteus vulgaris; conditions: 48 h
# Method: as §1, §2, §3, §4, §5
# [6] = tested on: Pseudomonas aeruginosa (PRD-10); assay: Minimum inhibitory concentration (MIC) in nutrient agar, Pseudomonas aeruginosa PRD-10; conditions: 48 h
# Method: as §1, §2, §3, §4, §5
# [7] = tested on: Pseudomonas aeruginosa (Pa); assay: Minimum inhibitory concentration (MIC) in nutrient agar, Pseudomonas aeruginosa; conditions: 30° C., 48 hours, read-out: Minimum Inhibitory Concentration, Pa
# Method: as §1, §2, §3, §4, §5
# [8] = tested on: Salmonella choleraesuis (Se); assay: Minimum inhibitory concentration (MIC) in nutrient agar, Salmonella choleraesuis; conditions: Salmonella enterica, 48 h
# Method: as §1, §2, §3, §4, §5
# [9] = tested on: Staphylococcus aureus (Sa); assay: Minimum inhibitory concentration (MIC) in nutrient agar, Staphylococcus aureus
# Method: as §1, §2, §3, §4, §5
# [10] = tested on: Aspergillus niger (An); assay: Minimum inhibitory concentration (MIC) in malt yeast agar, Aspergillus niger
# Method: as §1
# (§6) Malt yeast agar is prepared at pH 5.5 by adding 3 g yeast extract and 45 g malt agar per liter of deionized water. The specific agar is dispensed in 30 mL aliquots into 25×200 mm test tubes, capped and autoclaved for 15 minutes at 115° C.
# as §3
# (§7) The inoculation with the yeast and fungi is accomplished as follows. Cultures of yeast and fungi are incubated for seven days on malt yeast agar at 30° C. These cultures are used to prepare suspensions by the following procedure. A suspension of each organism is prepared by adding 10 mL of sterile saline and 10 microliters of octylphenoxy polyethoxy ethanol to the agar slant of yeast or fungi. The sterile saline/octylphenoxy potyethoxy ethanol solution is then agitated with a sterile swab to suspend the microorganism grown on the slant. Each resulting suspension is diluted into sterile saline (1 part suspension: 9 parts sterile saline). Aliquots of these dilutions are placed in individual wells of Steer's Replicator and petri plates inoculated as previously described. The petri plates are incubated at 30° C. and read after 48 hours for yeast and 72 hours for fungi.
# [11] = tested on: Candida albicans (Ca); assay: Minimum inhibitory concentration (MIC) in malt yeast agar, Candida albicans
# Method: as §1, §6, §3, §7
# [12] = tested on: Penicillium chrysogenum (Pc); assay: Minimum inhibitory concentration (MIC) in malt yeast agar, Penicillium chrysogenum
# Method: as §1, §6, §3, §7
# [13] = tested on: Saccharomyces cerevisiae (Sc); assay: Minimum inhibitory concentration (MIC) in malt yeast agar, Saccharomyces cerevisiae
# Method: as §1, §6, §3, §7
# [14] = tested on: Trichoderma viride (Tv); assay: Minimum inhibitory concentration (MIC) in malt yeast agar, Trichoderma viride
# Method: as §1, §6, §3, §7
# [15] = tested on: Aureobasidium pullulan (Ap); assay: Minimum inhibitory concentration (MIC) in malt yeast agar, Aureobasidium pullulan
# Method: as §1, §6, §3, §7
# [16] = tested on: Fusarium oxysporum (Fo); assay: Minimum inhibitory concentration (MIC) in malt yeast agar, Fusarium oxysporum
# Method: as §1, §6, §3, §7
# [17] = 48 h, pH 8.2, read-out: Minimum Inhibitory Concentration, Bs
# [18] = pH 6.8, nutrient agar, 30° C., 48 hours, read-out: Minimum Inhibitory Concentration, Bs
# [19] = pH 6.8, read-out: Minimum Inhibitory Concentration, Ea
# [20] = pH 8.2, read-out: Minimum Inhibitory Concentration, Ea
# [21] = 48 h, pH 6.8, read-out: Minimum Inhibitory Concentration, Ec
# [22] = 48 h, pH 8.2, read-out: Minimum Inhibitory Concentration, Ec
# [23] = 48 h, pH 8.2, read-out: Minimum Inhibitory Concentration, Kp
# [24] = pH 6.8, nutrient agar, 30° C., 48 hours, read-out: Minimum Inhibitory Concentration, Kp
# [25] = pH 6.8, read-out: Minimum Inhibitory Concentration, Pv
# [26] = pH 8.2, read-out: Minimum Inhibitory Concentration, Pv
# [27] = pH 6.8, read-out: Minimum Inhibitory Concentration, PRD
# [28] = pH 8.2, read-out: Minimum Inhibitory Concentration, PRD
# [29] = pH 6.8, read-out: Minimum Inhibitory Concentration, SC
# [30] = pH 8.2, read-out: Minimum Inhibitory Concentration, SC
# [31] = 48 h, pH 8.2, read-out: Minimum Inhibitory Concentration, Sa
# [32] = pH 6.8, nutrient agar, 30° C., 48 hours, read-out: Minimum Inhibitory Concentration, Sa
# [33] = 72 h, pH 5.5, read-out: Minimum Inhibitory Concentration, An
# [34] = 48 h, pH 5.5, read-out: Minimum Inhibitory Concentration, Ca
# [35] = pH 5.5, malt yeast agar, 30° C., 72 hours for fungi, read-out: Minimum Inhibitory Concentration, PC
# [36] = pH 5.5, malt yeast agar, 30° C., 48 hours for yeast, read-out: Minimum Inhibitory Concentration, SC
# [37] = 72 h, pH 5.5, read-out: Minimum Inhibitory Concentration, Tv
# [38] = pH 5.5, malt yeast agar, 30° C., read-out: Minimum Inhibitory Concentration, Ap
# [39] = 72 h, pH 5.5, read-out: Minimum Inhibitory Concentration, Fo
# [40] = pH 8.2, nutrient agar, 30° C., 48 hours, read-out: Minimum Inhibitory Concentration, Sa
# [41] = pH 5.5, malt yeast agar, 30° C., 72 hours for fungi, read-out: Minimum Inhibitory Concentration, An
# [42] = 72 h, pH 5.5, read-out: Minimum Inhibitory Concentration, PC
# [43] = pH 5.5, malt yeast agar, 30° C., 72 hours for fungi, read-out: Minimum Inhibitory Concentration, Fo
# [44] = pH 8.2, nutrient agar, 30° C., 48 hours, read-out: Minimum Inhibitory Concentration, Ec
# [45] = pH 5.5, malt yeast agar, 30° C., 48 hours for yeast, read-out: Minimum Inhibitory Concentration, Ca
SMILES,"MIC [1, 17] [µg/mL]","MIC [1, 18] [µg/mL]","MIC [2, 19] [µg/mL]","MIC [2, 20] [µg/mL]","MIC [3, 21] [µg/mL]","MIC [4, 23] [µg/mL]","MIC [4, 24] [µg/mL]","MIC [5, 25] [µg/mL]","MIC [5, 26] [µg/mL]","MIC [6, 27] [µg/mL]","MIC [6, 28] [µg/mL]","MIC ([7]; pH 6.8, nutrient agar) [µg/mL]","MIC ([7]; pH 8.2, nutrient agar) [µg/mL]","MIC [8, 29] [µg/mL]","MIC [8, 30] [µg/mL]","MIC [9, 32] [µg/mL]","MIC [10, 33] [µg/mL]","MIC [11, 34] [µg/mL]","MIC [13, 36] [µg/mL]","MIC [15, 38] [µg/mL]",further results
"COc1cccc(-c2nsnc2SCSC#N)c1 [Example XXII, 4-(3-Methoxyphenyl)-3-thiocyanatomethylthio-1,2,5-thiadiazole]",25,9,500,> 500,500,> 500,500,500,> 500,500,> 500,500,> 500,500,> 500,500,50,250,9,9,"MIC [3, 22]: 500 µg/mL; MIC [9, 31]: 500 µg/mL; MIC [12, 35]: 25 µg/mL; MIC [14, 37]: 250 µg/mL; MIC [16, 39]: 50 µg/mL"
"CSc1ccc(-c2nsnc2SC#N)cc1 [Example IX, 4-(4-Methylthiophenyl)-3-thiocyanato-1,2,5-thiadiazole]",250,< 10,> 500,500,> 500,500,> 500,> 500,500,> 500,500,> 500,500,> 500,500,–,–,50,< 10,< 10,"MIC [3, 22]: 500 µg/mL; MIC ([9]; 48 h, pH 6.8, read-out: Minimum Inhibitory Concentration, Sa): 50 µg/mL; MIC [9, 40]: 250 µg/mL; MIC [10, 41]: < 10 µg/mL; MIC [12, 42]: < 10 µg/mL; MIC [14, 37]: < 10 µg/mL; MIC [16, 43]: < 10 µg/mL"
"N#CSCSc1nsnc1-c1cccnc1 [Example XXXI, 4-(3-Pyridyl)-3-thiocyanatomethylthio-1,2,5-thiadiazole]",25,50,500,> 500,500,> 500,500,500,> 500,500,> 500,500,> 500,500,> 500,100,25,25,9,9,"MIC [3, 44]: 250 µg/mL; MIC [9, 40]: 50 µg/mL; MIC [12, 35]: 9 µg/mL; MIC [14, 37]: 50 µg/mL; MIC [16, 39]: 25 µg/mL"
"N#CSCSc1nsnc1-c1ccc(C(F)(F)F)cc1 [Example XXVI, 4-(4-Trifluoromethyl-phenyl)-3-thiocyanatomethylthio-1,2,5-thiadiazole]",–,9,500,> 500,500,> 500,500,500,> 500,500,> 500,500,> 500,500,> 500,25,25,–,–,–,"MIC ([1]; pH 8.2, nutrient agar, 30° C., 48 hours, read-out: Minimum Inhibitory Concentration, Bs): 9 µg/mL; MIC [3, 44]: 250 µg/mL; MIC [9, 40]: 25 µg/mL; MIC [11, 45]: > 500 µg/mL; MIC [12, 42]: 2.5 µg/mL; MIC ([13]; 48 h, pH 5.5, read-out: Minimum Inhibitory Concentration, SC): 2.5 µg/mL; MIC ([14]; pH 5.5, malt yeast agar, 30° C., 72 hours for fungi, read-out: Minimum Inhibitory Concentration, Tv): > 500 µg/mL; MIC ([15]; pH 5.5, read-out: Minimum Inhibitory Concentration, Ap): 5 µg/mL; MIC [16, 43]: > 500 µg/mL"
"N#CSCSc1nsnc1-c1ccc(Cl)cc1 [Example XVIII, 4-(4-Chlorophenyl)-3-thiocyanatomethylthio-1,2,5-thiadiazole]",500,–,500,> 500,500,> 500,500,500,> 500,500,> 500,500,> 500,500,> 500,500,–,250,9,9,"MIC ([1]; 48 h, pH 6.8, read-out: Minimum Inhibitory Concentration, Bs): 500 µg/mL; MIC [3, 44]: 250 µg/mL; MIC [9, 31]: > 500 µg/mL; MIC [10, 41]: 9 µg/mL; MIC [12, 35]: 9 µg/mL; MIC [14, 37]: 250 µg/mL; MIC [16, 39]: 100 µg/mL"
COC(=O)c1ccc(-c2nsnc2SC#N)cc1 [Example XII],500,25,500,500,500,500,500,500,500,500,500,500,500,500,500,500,25,–,10,10,"MIC [3, 22]: 500 µg/mL; MIC [9, 31]: 500 µg/mL; MIC [11, 45]: 10 µg/mL; MIC [12, 42]: 100 µg/mL; MIC [16, 43]: 10 µg/mL"
